Laboratory results published in US20180360782A1, “METHOD OF MODULATING RIBONUCLEOTIDE REDUCTASE” (CASE WESTERN RESERVE UNIVERSITY, priority 2015, published 2018).
Read-outs that look alike come from different tables or passages of the source.

Experiments:
MDA-231 = experiment: Time dependence of growth inhibitory activity, MDA-231; type: cell-based; conditions: Homo sapiens, MDA-MB-231
Protocol: (§1) The growth inhibition assay was performed in the Preclinical Drug Testing Laboratory of the Case Comprehensive Cancer Center using a standardized protocol. Cell lines (human colon cancer HCT116 and human breast cancer MDA-MB-231 cells) were maintained in standard growth media; RPMI1640+10% FBS+2 mM glutamine+100U/ml penicillin, 100 ug/ml streptomycin and shown to be negative for mycoplasma contamination using the MycoAlert™ Mycoplasma Detection kit (Lonza, Basel, Switzerland). Cell identity was verified by Short Tandem Repeat (STR) testing performed using the Promega StemElite kit, in the Genetic Resources Core Facility (GRCF) at Johns Hopkins University.
(§2) For growth inhibition assays, cells were harvested by trypsinization and seeded into 96-well tissue culture plates at 2500 cells/mL. The following day an equal volume of 2×-drug containing medium was added to each well. […] Cell growth was assessed by measuring DNA content per well using the method of Labarca and Paigen. Dye fluorescence was measured in a Perkin-Elmer 1420 Victor3 Multilabel plate reader using 355 nm excitation and 460 nm emission.

[1] = system: MDA-MB-231 and HCT-116 cell lines; experiment: Growth inhibition screening assay (In Cell IC50); type: cell-based, human; conditions: Homo sapiens, 72 h; 3 days with compound
Protocol: (§3) Cell were maintained in standard tissue culture media (RPMI1640, +10% fetal bovine serum, plus antibiotic) and grown in a standard humidified 5% CO2 incubator at 37° C. Cells were regularly tested using the MycoAlert detection kit (Lonza Biologics) and shown to be mycoplasma-free. Initial compound screening was performed using both MDA-MB-23 land HCT-116 cell lines. For moderate throughput screening (up to 120 drugs per experiment), cells were seeded into 96 well plates and allowed to attach overnight. The following day media was removed and replaced with fresh compound containing media. Each compound was tested against both cell lines at 3 concentrations; 1 μM, 10 μM and 50 μM, in duplicate. Cells were incubated with compound containing media for three days in a standard 5% CO2 tissue culture incubator. Cell growth was assessed after 3 days using the DNA dye binding assay, as originally described by LaBarca and Paigen. Relative growth was independently calculated for each cell line, based on DNA content from corresponding cells grown in control media plus diluent (DMSO). Additional growth inhibition experiments utilized either the DNA binding assay or the Promega CellTiter 96® (MTT reduction) assay, with similar results. For detailed growth inhibition assays, cells (1500-2500 depending on the growth characteristics of the cell line) were seeded in standard 96 well tissue culture plates and allowed to attach overnight. The following day media was removed and replaced with drug containing media. Each dose group consisted of 5 replicate wells, and results are reported a Relative Growth, calculated as DNA or MTT reduction per well, divided by the signal from untreated cells, both harvested 3 days after drug administration.

[2] = Metal chelation by UV spectroscopy titration, Mg2+; type: physicochemical; conditions: 100 μM ligand, 10 mM ammonium acetate pH 7.0, metal 100 μM to 1 mM
Excerpt: There have been multiple reports of small molecule agents inhibiting RR through the scavenging of free radicals that are required for the reduction of nucleotide diphosphates. Nitric oxide and hydroxyurea (that quench the tyrosyl free radicals), and iron chelating small molecules such as desferrioxamine (that irreversibly chelate to Fe-(II) that is essential for -housing the free radicals) are a few examples. […] Therefore to test this hypothesis, the propensity of NSAAH-E-3A to bind to Mg^2+ and Fe^2+ (both present in the inhibition assay previously described) was determined by UV spectroscopy. In 10 mM ammonium acetate buffer (pH 7.0), a 100 μM solution of NSAAH-E-3A was titrated against FeCl2.6H2O and MgCl2.6H2O idependently at varying concentrations of metal ranging from 100 μM to 1 mM. The stoichiometry of NSAAH-E-3A : M^2+ tested were 1:1, 1:2, 1:3, 1:4, 1:5, 1:6, 1:7, 1:8, 1:9, and 1:10. A scanning UV […] spectrum was recorded between 200-800 nm at each concentration. Noticeable changes occurred -when NSAAH-E-3A was subjected to a titration with FeCl2.6H2O at concentrations of metal ranging from 600 μM to 1 mM. […] Similarly, a titration experiment was carried against Mg^2+ salt at concentrations of metal ranging from 100 μM to 1 mM at stoichiometry of 1:1, 1:2, 1:3, 1:4, 1:5, 1:6, 1:7, 1:8, 1:9, and 1:10.

[3] = system: MDA-MB-231, HCT116, A549 and Panc1 cell lines; experiment: Detailed growth inhibition studies, median effect dose; type: cell-based; conditions: Homo sapiens, 72 h, read-out: median effect dose (Dm), growth inhibitory activity
Protocol: Cell were maintained in standard tissue culture media (RPMI1640, +10% fetal bovine serum, plus antibiotic) and grown in a standard humidified 5% CO2 incubator at 37° C. […] For moderate throughput screening (up to 120 drugs per experiment), cells were seeded into 96 well plates and allowed to attach overnight. The following day media was removed and replaced with fresh compound containing media. Each compound was tested against both cell lines at 3 concentrations; 1 μM, 10 μM and 50 μM, in duplicate. Cells were incubated with compound containing media for three days in a standard 5% CO2 tissue culture incubator. Cell growth was assessed after 3 days using the DNA dye binding assay, as originally described by LaBarca and Paigen. Relative growth was independently calculated for each cell line, based on DNA content from corresponding cells grown in control media plus diluent (DMSO). […] The following day media was removed and replaced with drug containing media.
Over 190 compounds were screened for their ability to inhibit growth and/or induce cell death in established cancer cell lines.

[4] = system: normal mobilized peripheral blood progenitor cells; experiment: Blood progenitor colony forming unit (CFU) assay; type: cell-based, human; conditions: 14 days
Protocol: The CFU assay was performed in the Hematopoietic Biorepository and Cellular Therapy Core Facility of the Case Comprehensive Cancer Center using a standardized protocol.
Briefly, mobilized peripheral blood mononuclear cells were collected from healthy donors by apheresis after Neupogen stimulation under University Hospitals IRB Protocol #09-90-195. Excess discarded cells were diluted to 1(10^6) cells/mL in RPMI1640+15% fetal bovine serum, 100 U/mL penicillin, 100 μg/mL streptomycin and 50.4 units/ml GM-CSF. Drug solution was added to the cell suspension and 9× volume of complete methylcellulose (Methocult H4434+50 μM hemin.). The methylcellulose/cell suspension was aliquoted into triplicate 35-mm gridded tissue culture plates and incubated in a humidified 5% CO2 incubator at 37° C. for 14 days. Plates were counted visually and clusters of >50 cells were scored as surviving colonies.

Panc1 = experiment: Time dependence of growth inhibitory activity, Panc1; type: cell-based; conditions: Homo sapiens, PANC-1
HCT116 = experiment: Time dependence of growth inhibitory activity, HCT116; type: cell-based; conditions: Homo sapiens, HCT-116
Protocol: as §1, §2

select cancer cell lines = experiment: Cellular IC50 of NSAAH library (Table 3); type: cell-based
Protocol: as §3

MDA-MB-231 = experiment: Combination experiment: gemcitabine with sublethal compound 2; conditions: Homo sapiens, MDA-MB-231, read-out: Dm, Gemcitabine alone

Row | IC50 ([3]; set of four cell lines, 3 days) | Compound | IC50 (MDA-231; MDA-231, Drug Exposure 2 hr) | IC50 (MDA-231; MDA-231, Drug Exposure 6 hr) | IC50 (MDA-231; MDA-231, Drug Exposure 24 hr) | IC50 (MDA-231; MDA-231, Drug Exposure 72 hr) | IC50 [1] | ligand:Mg^2+ stoichiometry at which the UV spectrum shows binding [2] | IC50 [3] | cytotoxicity against normal blood progenitor cells [4] | IC50 (Panc1; Panc1, Drug Exposure 2 hr) | IC50 (Panc1; Panc1, Drug Exposure 6 hr) | IC50 (Panc1; Panc1, Drug Exposure 24 hr) | IC50 (Panc1; Panc1, Drug Exposure 72 hr) | IC50 (HCT116; HCT116, Drug Exposure 2 hr) | IC50 (HCT116; HCT116, Drug Exposure 6 hr) | IC50 (HCT116; HCT116, Drug Exposure 24 hr) | IC50 (HCT116; HCT116, Drug Exposure 72 hr) | IC50 (select cancer cell lines) | IC50 (MDA-MB-231)
1 |  | O=C(N/N=C/c1c(O)ccc2ccccc12)c1ccccc1O [compound 3, (E)-2-hydroxy-N′-((2-hydroxynaphthalenyl)methylene) benzohydrazide] | > 10000 nM | > 10000 nM | 658 nM | 498 nM | 380 nM | no noticeable change | 500 to 1000 nM | little measurable cytotoxicity | > 10000 nM | > 10000 nM | 898 nM | 442 nM | > 10000 nM | > 10000 nM | 572 nM | 221 nM | 0.225 nM | 
2 | 500 to 1000 nM | Nc1ccn([C@@H]2O[C@H](CO)[C@@H](O)C2(F)F)c(=O)n1 [Gemcitabine, reference compound] | 1930 nM | 1540 nM | 274 nM | 100 nM |  |  |  |  | 680 nM | 406 nM | 84 nM | 46 nM | 487 nM | 343 nM | 58 nM | 30 nM |  | 920 nM
